The test system of test [1] is DCC expression in panel of 15 cancer cell lines. The note with it: drug at IC10, IC30, IC50 or ICMAX, 24 hours.
Test [2] has as its system Netrin-1 gene expression in A549 lung cancer cell line. Briefly: Netrin-1 gene expression by quantitative RT-PCR in A549 cells. The following applies: 24 hours. The test is classed as cell-based, human.
The test system of test [3] is A549 cells. Briefly: Caspase-3 activity assay in A549 cells. The test is classed as cell-based, human. The note with it: A549 transfected with scramble siRNA (siCTRL), Doxorubicin 24 hours. As to the method:
(§1) FIGS. 13-14: Netrin-1 silencing triggers apoptosis in combination with Doxorubicin treatment. A549 cells were transfected as in (FIGS. 10-12), and treated with the indicated Doxorubicin concentrations for 24 hours. […] DoxoR, Doxorubicin.

In test [4] the test system is Netrin-1 gene expression in H460 lung cancer cell line. Kind of test: Netrin-1 gene expression by quantitative RT-PCR in H460 cells. The following applies: H460, 2 μM Doxorubicin, 24 hours, normalized with GAPDH, compared to not-treated cells.
The subject of test [5] is UNC5D gene expression in A549 cells. Kind of test: Netrin-1 receptor gene expression in A549 cells: UNC5D. The test is classed as cell-based, human. The note with it: A549 cells following Doxorubicin treatment.
The test system of test [6] is UNC5D expression in panel of 15 cancer cell lines. The note with it: drug at IC10, IC30, IC50 or ICMAX, 24 hours.
Test [7] relates to UNC5A gene expression in A549 cells. Kind of test: Netrin-1 receptor gene expression in A549 cells: UNC5A. Format: cell-based, human. The note with it: A549 cells following Doxorubicin treatment.
Test [8] relates to UNC5C gene expression in A549 cells. Briefly: Netrin-1 receptor gene expression in A549 cells: UNC5C. The note with it: A549 cells following Doxorubicin treatment. The test is classed as cell-based, human.
Test [9] has as its system UNC5B gene expression in A549 cells. Kind of test: Netrin-1 receptor gene expression in A549 cells: UNC5B. The test is classed as cell-based, human.
For test [10], the system named is DCC gene expression in A549 cells. Briefly: Netrin-1 receptor gene expression in A549 cells: DCC. The test is classed as cell-based, human. The following applies: A549 cells following Doxorubicin treatment.
Test [11] concerns UNC5B expression in panel of 15 cancer cell lines. The following applies: drug at IC10, IC30, IC50 or ICMAX, 24 hours.
Test [12] concerns A549 cells. Kind of test: Cell death rate by ToxiLight bioluminescent cytotoxicity assay in A549 cells. The note with it: 48 hours; for Potentiation of Doxorubicin-induced cell death (toxilight): A549, 2 μg/mL fusion protein plus Doxorubicin.
Method: Cell death rate (FIG. 10), measured by toxilight kit as described in materials and methods section, and cell survival (FIG. 11), was evaluated 48 hours after treatment. Results were normalized to control, untreated cells.
A549 cells were transfected with scramble siRNA (siCTRL), netrin-1-specific siRNA (siNet), UNC5B-specific siRNA (siUnc5B) and with a combination of netrin-1 and UNC5B-targeting siRNA. 24 hours after transfection, cells were treated with the indicated Doxorubicin concentrations for 48 hours, and cell death rate was measured by toxilight and normalized to control, untreated cells.
FIGS. 16-17: A549 cells were treated for 48 hours with the indicated Doxorubicin concentrations in presence or not of 2 μg/mL TRAP-netrin^DCC (FIG. 16) and TRAP-netrin^Unc5A (FIG. 17). […] Results were normalized to untreated cells. *, P<0.05; **, P<0.01; ***, P<0.001.
Cell death was evaluated by means of different methods. For total cell death assays, 5*10^3 cells per well were grown in 96-well plate in serum-poor medium and treated with Doxorubicin. 48 hours later, cell death was evaluated using the bioluminescent cytotoxicity assay ToxiLight (Lonza, Basel, Switzerland), according to manufacturer's instruction. […] Cell survival was measured by MTS assay (CellTiter 96 AQueous One Solution Cell Proliferation Assay, Promega) in 96-well plates. MTS assay was performed according to the manufacturer's procedures on 3*10^3 cells grown in serum-poor medium for 16 hours and then treated for 48 hours with the indicated Doxorubicin concentrations in serum-free medium.
In test [13] the test system is A549 cells engrafted in nude mice. Briefly: A549 xenograft in athymic nude mice, tumor growth. The test is classed as in vivo. The following applies: i.p. twice a week for two weeks, TRAP-netrin^UNC5A 20 mg/kg, Doxorubicin 2 mg/kg, alone or combined. As for the experimental part:
FIG. 22: Netrin-1 interfering potentiates Doxorubicin anti-cancer effect in a preclinical animal model. A549 cells were engrafted in seven-weeks old female athymic nude mice. Once tumors reached a 100 mm^3-volume, mice were treated intraperitoneally with TRAP-netrin^UNC5A (20 mg/kg), Doxorubicin (2 mg/kg) or with a combination of both drugs, twice a week for two weeks. As a control, mice were injected with PBS. Histogram represents tumor volume growth for each group as a function of days post-xenografts.
Seven-week-old (20-22 g body weight) female athymic nu/nu mice were obtained from Charles River animal facility. The mice were housed in sterilized filter-topped cages and maintained in a pathogen-free animal facility. A549 cells were implanted by s.c. injection of 10^7 cells in 200 μL of PBS into the right flank of the mice. Once tumors were established (V≈100 mm^3), mice were treated with netrin-1 interfering drugs and/or cytotoxic drugs for two weeks. Tumor sizes were measured with a caliper. The tumor volume was calculated with the formula v=0.5*(length*width^2). At the end of the treatment, tumors were harvested, weighted and were embedded in 7.5% gelatin—0.12M sucrose and sectioned into 20 μm slices.
We then assessed whether the in vitro effect seen above could be translated in vivo in a therapeutic perspective. […]

The test system of test [14] is Netrin-1 protein in A549 cells. Kind of test: Netrin-1 protein levels by western blotting in A549 cells. Format: cell-based, human. The note with it: A549, 1 μM and 2 μM Doxorubicin, 48 hours, normalized to β-actin. For orientation: In western blotting, separated proteins are transferred to a membrane and probed.
Method: For immunoblot analysis, cells were lysed by sonication in modified RIPA buffer (50 mM Tris-HCl, pH7.5, 150 mM NaCl, 1% NP-40, 0.5% sodium deoxycholate, 0.1% SDS, 1 mM EDTA, protease inhibitor cocktail and 5 mM DTT) and incubated 1 h at 4° C. Cellular debris were pelletted by centrifugation (10.000 g 15′ at 4° C.) and protein extracts (200 μg per lane) were loaded onto 10% SDS-polyacrylamide gels and blotted onto PVDF sheets (Millipore Corporation, Billerica, Mass., U.S.A.). Filters were blocked with 10% non-fat dried milk and 5% BSA in PBS/0.1% Tween 20 (PBS-T) over-night and then incubated for 2 h with rabbit polyclonal α-netrin-1 (dilution 1:500, clone H104, Santa Cruz Biotechnology, Santa Cruz, Calif., USA) and mouse monoclonal β-actin (Santa Cruz Biotechnologies) antibodies. After three washes with PBS-T, filters were incubated with the appropriate HRP-conjugated secondary antibody (1:10000, Jackson ImmunoResearch, Suffolk, UK) for 1 h. Detection was performed using West Dura Chemiluminescence System (Pierce, Rockford, Ill., U.S.A.).
Test [15] deals with A549 cells. Kind of test: DNA fragmentation in A549 cells. The test is classed as cell-based, human. The note with it: A549 transfected with scramble siRNA (siCTRL), Doxorubicin 24 hours. As to the method:
as §1

The test system of test [16] is A549 cells. Kind of test: Cell survival by MTS assay in A549 cells. The note with it: 48 hours. On the technique in general: Formazan colour is commonly taken as a measure of viable cells.
Method: FIGS. 18-19: A549 cells were treated with PBS or 2 μg/mL TRAP-netrin^Unc5A, in presence of the indicated concentrations of 5-Fluorouracil (5-FU, FIG. 18) or Cisplatin (FIG. 19). 48 hours after co-treatment, cell survival was measured by MTS and normalized to untreated cells. *, P<0.05; **, P<0.01; ***, P<0.001.
Cell survival was measured by MTS assay (CellTiter 96 AQueous One Solution Cell Proliferation Assay, Promega) in 96-well plates.
Test [17] deals with netrin-1 expressing tumor cells. Briefly: Death of netrin-1 expressing tumor cells in vitro (not shown). Format: cell-based. The following applies: data not shown.
In a further test the test system is MiaPacA cells. Kind of test: Cell survival by MTS assay in MiaPacA cells. Format: cell-based, human. The following applies: 48 hours.

Numbered stars: 1 amine (or outer) side, 2 acyl side, 3 side chain; on linkers, the order of the positions; unused ones are H or OH. Bridge positions count the residues as written; N and C are the ends. Square brackets hold non-standard residues; d marks the D form. Peptide text beside a SMILES is read from it. I, II: the chains in the order shown. Actinocin(9to1) = Cc1c2oc3c(C)ccc(C(=O)[*:1])c3nc-2c(C(=O)[*:2])c(N)c1=O; NMeV = CN[C@H](C(=O)O)C(C)C; Sar = CNCC(=O)O

With `O=c1[nH]cc(F)c(=O)[nH]1` [5FU, 5-Fluorouracil], the “cell lines with up-regulation of DCC” value in test [1] is given as 43%.
Turning to `Cc1c2oc3c(C)ccc(C(=O)N[C@@H]4C(=O)N[C@H](C(C)C)C(=O)N5CCC[C@H]5C(=O)N(C)CC(=O)N(C)[C@@H](C(C)C)C(=O)O[C@@H]4C)c3nc-2c(C(=O)N[C@@H]2C(=O)N[C@H](C(C)C)C(=O)N3CCC[C@H]3C(=O)N(C)CC(=O)N(C)[C@@H](C(C)C)C(=O)O[C@@H]2C)c(N)c1=O` [Actinomycin D] (I: T[dV]P[Sar][NMeV] / II: T[dV]P[Sar][NMeV]; ester I:1-I:C, II:1-II:C; linker I:N-II:N via Actinocin(9to1)), the “Effect on Doxorubicin-mediated netrin-1 up-regulation” value in test [2] (A549, 2 μM Doxorubicin plus Actinomycin D 100 μg/ml) is given as “fully prevents”.
As for `N.N.[Cl][Pt][Cl]` [Cisplatin], in test [1], the “cell lines with up-regulation of DCC” value was 36%.
Take `COc1cccc2c1C(=O)c1c(O)c3c(c(O)c1C2=O)C[C@@](O)(C(=O)CO)C[C@@H]3O[C@H]1C[C@H](N)[C@H](O)[C@H](C)O1` [Doxorubicin]: in test [1], the “cell lines with up-regulation of DCC” value was found to be 87%. Also, in the test with A549 cells [3], the “Apoptosis (active caspase-3)” value is “failed to induce apoptosis”. Moreover, the “netrin-1 mRNA level increase” value was found to be 300 fold in test [4] and 430 fold in test [2] (A549, 2 μM Doxorubicin, normalized with GAPDH, compared to not-treated cells). In addition, in test [5], the UNC5D gene expression result is recorded as “non-significant variations”. Moreover, the “cell lines with up-regulation of UNC5D” value in test [6] came out at 67%. Besides, in test [7], the UNC5A gene expression result is recorded as “significantly up-regulated”. In [8], the UNC5C gene expression result is on record as “non-significant variations”. Further, the UNC5B gene expression result in test [9] (A549 cells following Doxorubicin treatment, result in words) is given as “significantly up-regulated”. In addition, in test [9] (A549 cells treated with Doxorubicin), the “UNC5B receptor level increase” value was determined as 44 folds. Also, the DCC gene expression entry in [10] is listed as “significantly up-regulated”. Besides, the “cell lines with up-regulation of UNC5B” value in [11] is given as 80%. Besides, the “Cell death rate and cell survival under Doxorubicin” value in the test on A549 cells [12] (A549 scramble siRNA-transfected cells, increasing Doxorubicin concentrations) is “general resistance”. Further, in test [13], the Tumor growth inhibition result is “detectable but weak tumor growth inhibiting effect”. Besides, the Netrin-1 protein levels result in test [14] is on record as “strongly accumulated”. The “Apoptosis (DNA fragmentation)” value with A549 cells [15] was “failed to induce apoptosis”.
Take `CC(=O)O[C@H]1C(=O)[C@@]2(C)[C@H]([C@H](OC(=O)c3ccccc3)[C@]3(O)C[C@H](OC(=O)[C@H](O)[C@@H](NC(=O)c4ccccc4)c4ccccc4)C(C)=C1C3(C)C)[C@]1(OC(C)=O)CO[C@@H]1C[C@@H]2O` [Taxol, paclitaxel]: the “cell lines with up-regulation of DCC” value in test [1] was found to be 53%.
Turning to “TRAP-netrin^UNC5A: two immunoglobin (Ig1-Ig2) domains of the UNC5A ectodomain fused to IgG1 Fc portion; SEQ ID NO: 1”, the “Potentiating effect on cell death, co-treatment with 5FU (cell survival by MTS)” value with A549 cells [16] (A549, 2 μg/mL fusion protein plus 5FU) is listed as “Comparable potentiating effect on cell death”. Also, in the test with A549 cells [16] (A549, 2 μg/mL fusion protein plus Cisplatin), the “Potentiating effect on cell death, co-treatment with Cisplatin (cell survival by MTS)” value is recorded as “Comparable potentiating effect on cell death”. Moreover, the “Death of netrin-1 expressing tumor cells in vitro” value in [17] is reported as “trigger death of netrin-1 expressing tumor cells”. The “Potentiation of Doxorubicin-induced cell death (toxilight)” value with A549 cells [12] was “strongly potentiate”. The Tumor growth inhibition result in test [13] is recorded as “detectable but weak tumor growth inhibiting effect”. In addition, the “Cell death, co-treatment with 5FU (cell survival by MTS)” value in the test with MiaPacA cells (2 μg/mL fusion protein plus 5FU) is recorded as “potentiated cell death”. Besides, the “Cell death, co-treatment with Doxorubicin (cell survival by MTS)” value in the test on MiaPacA cells (2 μg/mL fusion protein plus Doxorubicin) is given as “potentiated cell death”.

B1: TRAP-netric^DCC: fifth fibronectin domain of DCC ectodomain fused to IgG1 Fc portion (protein)
chain: PPVGVQAVALTHDAVRVSWADNSVPKNQKTSEVRLYTVRWRTSFSASAKYKSEDTTSLSYTATGLKPNTMYEFSVMVTKNRRSSTWSMTAHATTYEA
modifications: left off: a dimerising Fc or GST
notes: fifth fibronectin domain of DCC ectodomain fused to IgG1 Fc portion
Consider B1, for which the “Death of netrin-1 expressing tumor cells in vitro” value in test [17] is recorded as “trigger death of netrin-1 expressing tumor cells”. In addition, in the test with A549 cells [12], the “Potentiation of Doxorubicin-induced cell death (toxilight)” value is given as “strongly potentiate”.

The values above are taken from US9895439B2, “Combined treatment with netrin-1 interfering drug and chemotherapeutic drug” (NETRIS PHARMA, priority 2012, dated 2018).
